Patent publication US10953016B2, “Solid dosage form containing quinazoline derivative” (Shionogi & Co., Ltd., priority 2017, dated 2021)
Counter-ions that a name gives are not always drawn.

Experiments:
Assay type in all cases: physicochemical
[1] = Water sorption-desorption isothermal measurement; settings: ratio of increased moisture mass
Excerpt: Water Sorption-desorption Isothermal Measurement

[2] = Test of solubility in water for injection; settings: stirred at 37° C. for 1 hour
Protocol: 1. Formulation of Calibration Curve
First, 5 mg of monohydrochloride crystalline form I of the compound represented by formula (I) was precisely weighed and dissolved in a mixed solution of acetonitrile:water (1:1), and thus a 500 μg/mL solution was obtained. The obtained solution was diluted with a mixed solution of acetonitrile:water (1:1) such that the concentrations of the compound were 5 and 50 μg/mL, and a standard calibration curve was prepared. The same operation was carried out for monohydrochloride crystalline form II, monohydrochloride crystalline form V, monohydrochloride crystalline form VI, mono-p-toluenesulfonate crystalline form I, and free base crystals.
2. Formulation of Sample Solution
First, 1 mg of monohydrochloride crystalline form I of the compound represented by formula (I) was precisely weighed and transferred to a vial having a volume of 4 mL. Then, 1 mL of water (water for injection) was added, and the mixture was stirred at 37° C. for 1 hour. After being stirred, this suspension was filtered, and the peak area using a solution obtained by diluting the filtrate two-fold with a mixed solution of acetonitrile:water (1:1) as a sample. The concentration was calculated using the peak area and the calibration curve prepared above. The same operation was carried out for monohydrochloride crystalline form II, monohydrochloride crystalline form V, monohydrochloride crystalline form VI, mono-p-toluenesulfonate crystalline form I, and free base crystals.

[3] = Light exposure test of crystals (E isomer by HPLC); settings: for E isomer (Retention time 38 minutes) Increased amount: light exposed sample minus dark control
[4] = Test of solubility in organic solvent; settings: stirred at 22° C. for 4 hours, supernatant; for Concentration (% by weight) 2-Propanol: suspended in 2-propanol; for Concentration (% by weight) Acetone: suspended in acetone; for Concentration (% by weight) Ethyl acetate: suspended in ethyl acetate
Protocol: The monohydrochloride crystalline form I, monohydrochloride crystalline form V, and free base crystals of the compound represented by formula (I) were each suspended in 2-propanol, acetone, and ethyl acetate, and stirred at 22° C. for 4 hours, and the concentrations of supernatants were measured.

[5] = Influence of light wavelength on related substances in solution
Protocol: In order to research the influence of light of the compound represented by formula (I), the amount of the related substances was measured after illumination with constant quantity of light.
A fixed amount of monohydrochloride of the compound represented by formula (I) was collected and dissolved in a mix of pH7 buffer:methanol:acetonitrile=38:31:31 to prepare a solution of 800 μg/mL. The solution was sealed in glass bottles. Thereafter, the glass bottles containing solution were irradiated with light of different wavelengths by a light irradiator (CRM-FA manufactured by Nippon Spectroscopy) and the amounts of related substances were measured.
The amount of the related substances was measured by liquid chromatography by employing the following method and conditions. The main related substance was the E-form of the optical isomer of the compound represented by formula (I). Therefore, in the analysis of the related substance amount, the E-form of the optical isomer of the compound represented by formula (I) was used as a reference for the analysis. • Detector: ultraviolet absorptiometer (measurement wavelength: 225 nm) • Column: Cadenza CW-C18 3μ, 4.6×150 mm (Imtakt) • Column temperature: constant temperature around 35° C. • Mobile Phase A: 10 mM ammonium acetate, […]

[6] = listed as Monohydrochloride form crystal V
[7] = listed as Monohydrochloride form crystal VI
[8] = listed as mono-p-toluenesulfonate crystalline form I

Row | Ratio of increased mass [1] | Solubility in water for injection [2] | Concentration (% by weight) 2-Propanol [4] | Concentration (% by weight) Acetone [4] | Concentration (% by weight) Ethyl acetate [4] | E isomer (Retention time 38 minutes) Dark control [3] | E isomer (Retention time 38 minutes) Light exposed sample [3] | E isomer (Retention time 38 minutes) Increased amount [3] | Compound | other results
1 | About 1.7% | high solubilities | 0.01 % by weight | 0.02 % by weight | 0.00 % by weight | – | – | – | CC#C/C(=N\OC[C@H]1COCCN1)c1ccc2ncnc(Nc3ccc(OCc4cccc(F)c4)c(Cl)c3)c2c1 [Monohydrochloride crystalline form V] | Ratio of increased mass ([1]; listed as monohydrochloride crystalline form V): small; E isomer (Retention time 38 minutes) Dark control [3, 6]: 0.13 area %; E isomer (Retention time 38 minutes) Increased amount [3, 6]: 1.06 area %; E isomer (Retention time 38 minutes) Light exposed sample [3, 6]: 1.19 area %
2 | – | – | – | – | – | – | – | – | CC#C/C(=N\OC[C@H]1COCCN1)c1ccc2ncnc(Nc3ccc(OCc4cccc(F)c4)c(Cl)c3)c2c1 | Total amount of related substances, wavelength of light higher than 450 nm ([5]; 800 μg/mL solution in pH7 buffer:methanol:acetonitrile=38:31:31, light higher than 450 nm): increased little; Total amount of related substances, wavelength of light shorter than 450 nm ([5]; 800 μg/mL solution in pH7 buffer:methanol:acetonitrile=38:31:31, light shorter than 450 nm): increased as the wavelength decreased
3 | About 3.3% | – | – | – | – | – | – | – | CC#C/C(=N\OC[C@H]1COCCN1)c1ccc2ncnc(Nc3ccc(OCc4cccc(F)c4)c(Cl)c3)c2c1 [Monosulfate crystal] | Ratio of increased mass ([1]; listed as monosulfate crystals): about 3.3%
4 | About 0.3% | high solubilities | – | – | – | 1.44 area % | 1.21 area % | −0.23 area % | CC#C/C(=N\OC[C@H]1COCCN1)c1ccc2ncnc(Nc3ccc(OCc4cccc(F)c4)c(Cl)c3)c2c1 [Monohydrochloride crystalline form II] | Ratio of increased mass ([1]; listed as monohydrochloride crystalline form H): small
5 | About 0.5% | high solubilities | – | – | – | – | – | – | CC#C/C(=N\OC[C@H]1COCCN1)c1ccc2ncnc(Nc3ccc(OCc4cccc(F)c4)c(Cl)c3)c2c1 [Monohydrochloride crystalline form VI] | Ratio of increased mass ([1]; listed as monohydrochloride crystalline form VI): small; E isomer (Retention time 38 minutes) Dark control [3, 7]: 1.16 area %; E isomer (Retention time 38 minutes) Increased amount [3, 7]: 0.64 area %; E isomer (Retention time 38 minutes) Light exposed sample [3, 7]: 1.80 area %
6 | About 1.0% | – | 0.49 % by weight | 8.1 % by weight | 3.3 % by weight | – | 2.59 area % | 2.59 area % | CC#C/C(=N\OC[C@H]1COCCN1)c1ccc2ncnc(Nc3ccc(OCc4cccc(F)c4)c(Cl)c3)c2c1 [Free base crystal] | Solubility in water for injection ([2]; listed as free base crystals): not dissolved in water for injection at all
7 | About 0.8% | high solubilities | 0.03 % by weight | 0.08 % by weight | 0.01 % by weight | 0.63 area % | 4.41 area % | 3.78 area % | CC#C/C(=N\OC[C@H]1COCCN1)c1ccc2ncnc(Nc3ccc(OCc4cccc(F)c4)c(Cl)c3)c2c1 [Monohydrochloride crystalline form I] | Ratio of increased mass ([1]; listed as monohydrochloride crystalline form I): small
8 | About 1.4% | high solubilities | – | – | – | 0.10 area % | 32.86 area % | 32.76 area % | CC#C/C(=N\OC[C@H]1COCCN1)c1ccc2ncnc(Nc3ccc(OCc4cccc(F)c4)c(Cl)c3)c2c1 [Mono-p-toluenesulfonate crystalline form I] | Ratio of increased mass [1, 8]: small; E isomer (Retention time 38 minutes) Increased amount [3, 8]: about 33 area %
